Experimental findings from patent US20230144824A1, “1H-PYRAZOLO[4,3-d]PYRIMIDINE COMPOUNDS AS TOLL-LIKE RECEPTOR 7 (TLR7) AGONISTS” (BRISTOL-MYERS SQUIBB COMPANY, priority 2020, published 2023) are described below.

For one assay, the system named is CD69. The assay can be described thus: Induction of CD69 in human whole blood. The format is cell-based. Particulars: Homo sapiens, 17 h, 100% set to 1 uM of resiquimod, average where assay performed multiple times, read-out: hWB CD69 EC50. The protocol:
The induction of Type I interferon (IFN) MX-1 genes and the B-cell activation marker CD69 are downstream events that occur upon activation of the TLR7 pathway. The following is a human whole blood assay that measures their induction in response to a TLR7 agonist.
Heparinized human whole blood was harvested from human subjects and treated with test TLR7 agonist compounds at 1 mM. The blood was diluted with RPMI 1640 media and Echo was used to predot 10 nL per well giving a final concentration of 1 uM (10 nL in 10 uL of blood). After mixing on a shaker for 30 sec, the plates were covered and placed in a 37° C. chamber for o/n=17 hrs. Fixing/lysis buffer was prepared (5×->1× in H2O, warm at 37° C.; Cat #BD 558049) and kept the perm buffer (on ice) for later use.
For surface markers staining (CD69): prepared surface Abs: 0.045 ul hCD14-FITC (ThermoFisher Cat #MHCD1401)+0.6 ul hCD19-ef450 (ThermoFisher Cat #48-0198-42)+1.5 ul hCD69-PE (cat #BD555531)+0.855 ul FACS buffer. Added 3 ul/well, spin1000 rpm for 1 min and mixed on shaker for 30 sec, put on ice for 30 mins. Stop stimulation after 30 minutes with 70 uL of prewarmed 1× fix/lysis buffer and use Feliex mate to resuspend (15 times, change tips for each plate) and incubate at 37 C for 10 minutes.
Centrifuge at 2000 rpm for 5 minutes aspirate with HCS plate washer, mix on shaker for 30 sec and then wash with 70 uL in dPBS and pelleted 2×s (2000 rpm for 5 min) and 50 ul wash in FACS buffer pelleted 1×s (2000 rpm for 5 min). Mix on shaker for 30 sec. For Intracellular markers staining (MX-1): Add 50 ul of BD Perm buffer III and mix on shaker for 30 sec. Incubate on ice for 30 minutes (in the dark). Wash with 50 uL of FACS buffer 2×(spin @2300 rpm×5 min after perm) followed by mixing on shaker for 30 sec. Resuspended in 20 ul of FACS buffer containing MX1 antibody ( )(4812)-Alexa 647: Novus Biologicals #NBP2-43704AF647) 20 ul FACS bf+0.8 ul hIgG+0.04 ul MX-1. Spin 1000 rpm for 1 min, mix on shaker for 30 se and the samples were incubated at RT in the dark for 45 minutes followed by washing 2×FACS buffer (spin @2300 rpm×5 min after perm). Resuspend 20 ul (35 uL total per well) of FACS buffer and cover with foil and place in 4° C. to read the following day. Plates were read on iQuePlus. The results were loaded into toolset and IC50 curves are generated in curve master. The y-axis 100% is set to 1 uM of resiquimod.

In another assay the target is T1, human TLR7 (Homo sapiens, UniProt Q9NYK1).
T1 construct: host or cells: HEK-Blue TLR7 cells (engineered human embryonic kidney cells)
T1 sequence (Q9NYK1 27-1049): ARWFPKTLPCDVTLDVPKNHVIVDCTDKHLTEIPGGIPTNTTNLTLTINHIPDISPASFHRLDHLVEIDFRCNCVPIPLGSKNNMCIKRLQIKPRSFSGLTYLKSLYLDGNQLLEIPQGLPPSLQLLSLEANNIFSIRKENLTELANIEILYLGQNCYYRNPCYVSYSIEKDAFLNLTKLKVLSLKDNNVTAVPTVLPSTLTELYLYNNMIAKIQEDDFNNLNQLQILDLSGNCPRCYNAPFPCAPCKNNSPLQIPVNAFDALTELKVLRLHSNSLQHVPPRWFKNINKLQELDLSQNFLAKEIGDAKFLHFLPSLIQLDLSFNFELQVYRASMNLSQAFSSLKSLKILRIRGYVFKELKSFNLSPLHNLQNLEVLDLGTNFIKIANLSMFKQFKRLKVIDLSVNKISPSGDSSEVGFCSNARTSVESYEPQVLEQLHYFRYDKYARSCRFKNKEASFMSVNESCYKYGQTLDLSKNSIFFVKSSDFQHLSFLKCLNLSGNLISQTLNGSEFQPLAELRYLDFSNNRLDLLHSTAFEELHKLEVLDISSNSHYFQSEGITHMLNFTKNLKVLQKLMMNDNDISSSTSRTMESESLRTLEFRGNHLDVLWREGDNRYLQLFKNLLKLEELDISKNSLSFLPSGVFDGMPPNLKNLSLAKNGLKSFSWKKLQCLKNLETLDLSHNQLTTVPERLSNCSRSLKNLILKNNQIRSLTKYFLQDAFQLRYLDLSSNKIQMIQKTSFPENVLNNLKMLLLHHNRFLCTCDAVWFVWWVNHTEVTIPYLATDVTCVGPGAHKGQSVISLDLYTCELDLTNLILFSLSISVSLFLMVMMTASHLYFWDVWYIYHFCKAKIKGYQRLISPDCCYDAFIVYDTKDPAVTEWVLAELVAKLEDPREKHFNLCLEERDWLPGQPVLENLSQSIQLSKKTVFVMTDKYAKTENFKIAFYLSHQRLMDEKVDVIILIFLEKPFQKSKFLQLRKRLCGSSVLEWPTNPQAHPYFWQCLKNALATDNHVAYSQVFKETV
Nature of the assay: Human TLR7 agonist activity assay (HEK-Blue TLR7 SEAP reporter). Particulars: HEK-Blue TLR7 cells, 18 h treatment, average where assay performed multiple times, read-out: hTLR7 Agonism EC50. It is filed as cell-based. The protocol: This procedure describes a method for assaying human TLR7 (hTLR7) agonist activity of the compounds disclosed in this specification.
HEK-Blue™ TLR7 cells were added to each well of a 384-well tissue-culture plate (15,000 cells per well) and incubated 16-18 h at 37° C., 5% CO2. Compounds (100 nl) were dispensed into wells containing the HEK-Blue™ TLR cells and the treated cells were incubated at 37° C., 5% CO2. After 18 h treatment ten microliters of freshly-prepared Quanti-Blue™ reagent (Invivogen) was added to each well, incubated for 30 min (37° C., 5% CO2) and SEAP levels measured using an Envision plate reader (OD=620 nm). The half maximal effective concentration values (EC50; compound concentration which induced a response halfway between the assay baseline and maximum) were calculated.

Molecules are shown by their SMILES.

A word on the EC50: it is the midpoint of the concentration-response curve. For `CCCCNc1nc(N)nc2cnn(Cc3ncc(C4CCN(C(=O)CCN(C)C)CC4)cc3OC)c12` [Compound 109, 1-[4-(6-{[5-amino-7-(butylamino)-1H-pyrazolo[4,3-d]pyrimidin-1-yl]methyl}-5-methoxypyridin-3-yl)piperidin-1-yl]-3-(dimethylamino)propan-1-one], the figures for the EC50 in the assay with CD69 and at human TLR7 were 14.5 nM and 215 nM, respectively.
The matching figures for `CCCCNc1nc(N)nc2cnn(Cc3ncc(C4CCN(C(=O)CC(C)(C)O)CC4)cc3OC)c12` [Compound 110, 1-[4-(6-{[5-amino-7-(butylamino)-1H-pyrazolo[4,3-d]pyrimidin-1-yl]methyl}-5-methoxypyridin-3-yl)piperidin-1-yl]-3-hydroxy-3-methylbutan-1-one]: 382 nM and 343 nM.
The matching figures for `CCCCNc1nc(N)nc2cnn(Cc3ncc(C4CCN(C)CC4)cc3OC)c12` [Compound 111, N7-butyl-1-{[3-methoxy-5-(1-methylpiperidin-4-yl)pyridin-2-yl]methyl}-1H-pyrazolo[4,3-d]pyrimidine-5,7-diamine]: 5.4 nM and 65.3 nM.
The matching figures for `CCCCNc1nc(N)nc2cnn(Cc3ncc(C4CCN(C5CCOCC5)CC4)cc3OC)c12` [Compound 112, N7-butyl-1-({3-methoxy-5-[1-(oxan-4-yl)piperidin-4-yl]pyridin-2-yl}methyl)-1H-pyrazolo[4,3-d]pyrimidine-5,7-diamine]: 5.9 nM and 34 nM.
For `CCCCNc1nc(N)nc2cnn(Cc3ncc(C4CCN(C(C)C)CC4)cc3OC)c12` [Compound 113, N7-butyl-1-({3-methoxy-5-[1-(propan-2-yl)piperidin-4-yl]pyridin-2-yl}methyl)-1H-pyrazolo[4,3-d]pyrimidine-5,7-diamine], the EC50 in the assay with CD69 is 9.4 nM; at human TLR7 it was 47.2 nM.
Consider `CCCCNc1nc(N)nc2cnn(Cc3ncc(C4CCN(CCO)CC4)cc3OC)c12` [Compound 114, 2-[4-(6-{[5-amino-7-(butylamino)-1H-pyrazolo[4,3-d]pyrimidin-1-yl]methyl}-5-methoxypyridin-3-yl)piperidin-1-yl]ethan-1-ol], for which the concentration giving a half-maximal response (EC50) in the assay on CD69 was found to be 3.6 nM; on human TLR7, 49.9 nM.
In the same order, the values of `CCCCNc1nc(N)nc2cnn(Cc3ncc(C4CCN(C5CNC5)CC4)cc3OC)c12` [Compound 115, 1-({5-[1-(azetidin-3-yl)piperidin-4-yl]-3-methoxypyridin-2-yl}methyl)-N7-butyl-1H-pyrazolo[4,3-d]pyrimidine-5,7-diamine] are 64.7 nM and 447 nM.
Regarding `CCCCNc1nc(N)nc2cnn(Cc3ncc(C4CCN(C5CCS(=O)(=O)CC5)CC4)cc3OC)c12` [Compound 116, 4-[4-(6-{[5-amino-7-(butylamino)-1H-pyrazolo[4,3-d]pyrimidin-1-yl]methyl}-5-methoxypyridin-3-yl)piperidin-1-yl]-1λ^6-thiane-1,1-dione], the EC50 with CD69 was 10.5 nM; on human TLR7 it was 84.6 nM.
As for `CCCCNc1nc(N)nc2cnn(Cc3ncc(C4CCN(C(=O)CN5CC6(CN(C)C6)C5)CC4)cc3OC)c12` [Compound 117, 1-[4-(6-{[5-amino-7-(butylamino)-1H-pyrazolo[4,3-d]pyrimidin-1-yl]methyl}-5-methoxypyridin-3-yl)piperidin-1-yl]-2-{6-methyl-2,6-diazaspiro[3.3]heptan-2-yl}ethan-1-one], the results for the EC50 with CD69 and on human TLR7 were 313 nM and 856 nM, respectively.
The matching figures for `CCCCNc1nc(N)nc2cnn(Cc3ncc(C4CCN(C(=O)CN5C[C@@H]6C[C@H]5CN6)CC4)cc3OC)c12` [Compound 118, 1-[4-(6-{[5-amino-7-(butylamino)-1H-pyrazolo[4,3-d]pyrimidin-1-yl]methyl}-5-methoxypyridin-3-yl)piperidin-1-yl]-2-[(1S,4S)-2,5-diazabicyclo[2.2.1]heptan-2-yl]ethan-1-one]: 890 nM and 716 nM.
The matching figures for `CCCCNc1nc(N)nc2cnn(Cc3ncc(C4CCN(CC(N)=O)CC4)cc3OC)c12` [Compound 119, 2-[4-(6-{[5-amino-7-(butylamino)-1H-pyrazolo[4,3-d]pyrimidin-1-yl]methyl}-5-methoxypyridin-3-yl)piperidin-1-yl]acetamide]: 5.1 nM and 165 nM.
Consider `CCCCNc1nc(N)nc2cnn(Cc3ncc(C4CCN(CC(=O)N(C)C)CC4)cc3OC)c12` [Compound 120, 2-[4-(6-{[5-amino-7-(butylamino)-1H-pyrazolo[4,3-d]pyrimidin-1-yl]methyl}-5-methoxypyridin-3-yl)piperidin-1-yl]-N,N-dimethylacetamide], for which the half-maximal effective concentration (EC50) turned out to be 2 nM with CD69 and 79.1 nM at human TLR7.
`CCCCNc1nc(N)nc2c(C)nn(Cc3ncc(C4CCN(C5CCOCC5)CC4)cc3OC)c12` [Compound 121, N7-butyl-1-({3-methoxy-5-[1-(oxan-4-yl)piperidin-4-yl]pyridin-2-yl}methyl)-3-methyl-1H-pyrazolo[4,3-d]pyrimidine-5,7-diamine]: the half-maximal effective concentration (EC50) stood at 122 nM in the assay with CD69 and 602 nM on human TLR7.
In the same order, the values of `CCCCNc1nc(N)nc2c(C)nn(Cc3ncc(C4CCN(C(C)C)CC4)cc3OC)c12` [Compound 122, N7-butyl-1-({3-methoxy-5-[1-(propan-2-yl)piperidin-4-yl]pyridin-2-yl}methyl)-3-methyl-1H-pyrazolo[4,3-d]pyrimidine-5,7-diamine] are 18.7 nM and 193 nM.
In the same order, the values of `CCCCNc1nc(N)nc2c(C)nn(Cc3ncc(C4CCN(C)CC4)cc3OC)c12` [Compound 123, N7-butyl-1-{[3-methoxy-5-(1-methylpiperidin-4-yl)pyridin-2-yl]methyl}-3-methyl-1H-pyrazolo[4,3-d]pyrimidine-5,7-diamine] are 40.2 nM and 491 nM.
In the case of `CCC[C@@H](CCO)Nc1nc(N)nc2cnn(Cc3ncc(C4CCNCC4)cc3OC)c12` [Compound 124, (3S)-3-[(5-amino-1-{[3-methoxy-5-(piperidin-4-yl)pyridin-2-yl]methyl}-1H-pyrazolo[4,3-d]pyrimidin-7-yl)amino]hexan-1-ol], the results for the EC50 in the assay with CD69 and on human TLR7 were 56.9 nM and 189 nM, respectively.
